Results published in patent publication US5399697A, “N,N',N'-trisubstituted-5-bisaminomethylene-1,3-dioxane-4,6-dione inhibitors of acyl-CoA:cholesterol-acyl transferase” (American Home Products Corporation, priority 1993, dated 1995).
Where two headings read alike, the source gives them in different places.

Legend:
[1] = system: acyl-coenzyme A: cholesterol acyltransferase; assay: Inhibition of ACAT / intracellular cholesterol esterification in vitro (procedure of Ross et al.); assay type: cell-based; details: for % Inhibition: 25 μM; for IC50: read-out: IC50
[2] = system: cholesterol absorption; assay: 14C-cholesterol absorption in normal rats (oral gavage); assay type: in vivo; details: Rattus norvegicus; for ED50: normal fed rats
Method: Representative compounds were further tested in vivo to establish the percent inhibition of cholesterol absorption. In this study, normal rats were dosed (oral gavage) with ^14 C-cholesterol plus the test compound. Blood samples taken at six hours and/or intermittently up to twenty-four hours were analyzed and the percent inhibition of cholesterol absorption was calculated.

[3] = system: plasma cholesterol; assay: Plasma cholesterol in cholesterol-cholic acid fed rats; assay type: in vivo; details: Rattus norvegicus, oral gavage; for ED50: fifty percent reduction of plasma cholesterol
Method: In addition, representative compounds were studied in vivo in cholesterol-cholic acid fed rats to determine the percent decrease of cholesterol in their plasma. This study involves rats which are, prior to testing, trained for one week to eat over a four hour time period each day. Upon initiation of the experiment, the rats diet is supplemented with 1.0 percent cholesterol and 0.25 percent cholic acid. The rats are dosed with the test compound by oral gavage just prior to adjust following the four hour feeding period. This is repeated for four days. On the fifth day, the rats are sacrificed and the total plasma cholesterol content is determined. The percent decrease in elevated plasma cholesterol levels is calculated in comparison with […].

[4] = system: low density lipoprotein oxidation; assay: Antioxidant properties, low density lipoprotein oxidation studies (Parthasarathy et al.); assay type: biochemical; details: result in words
Excerpt: (§1) The use of antioxidants in the treatment of atherosclerosis is also known to be of therapeutic value.

[5] = system: lipoperoxide; assay: Antioxidant properties, lipoperoxide study of Yagi; assay type: biochemical; details: result in words
Excerpt: as §1

[6] = normal rats, read-out: % Inhibition of Absorption
[7] = 96 h, four days, read-out: % Decrease in Plasma Cholesterol

Row | Compound | % Inhibition [1] [%] | IC50 [1] [nM] | ED50 [2] [mg/kg] | ED50 [3] [mg/kg] | change in vivo at 40 mg/kg [3, 7] [%] | also measured
1 | CCCCCCCN(Cc1ccc(C(C)(C)C)cc1)C(Nc1ccc(N(C)C)cc1)=C1C(=O)OC(C)(C)OC1=O [Compound 5, 5-[[[4-(Dimethylamino)phenyl]amino][[[4-(1,1-dimethylethyl)phenyl]methyl]heptylamino]methylene]-2,2-dimethyl-1,3-dioxane-4,6-dione] | 99 | 1100 |  |  |  | change in vivo at 200 mg/kg [2, 6]: -91%; change in vivo at 100 mg/kg [3, 7]: -35%
2 | CCCCCC(C)N(Cc1ccc(CC(C)(C)C)cc1)C(Nc1ccc(OC)cc1OC)=C1C(=O)OC(C)(C)OC1=O (stereo not shown) [Compound 7, 5-[[(2,4-Dimethoxyphenyl)amino][[[4-(2,2-dimethylpropyl)phenyl]methyl](1-methylhexyl)amino]methylene]-2,2-dimethyl-1,3-dioxane-4,6-dione] | 99 | 830 | 3 | 6 |  | change in vivo at 100 mg/kg ([3]; 96 h, heading: % Decrease in Plasma Cholesterol, four days): -100%
3 | CCCCCC(C)N(Cc1ccc(C(C)(C)C)cc1)C(Nc1ccc(N(C)C)cc1)=C1C(=O)OC(C)(C)OC1=O (stereo not shown) [Compound 21, 5-[[[4-(Dimethylamino)phenyl]amino][[[4-(1,1-dimethylethyl)phenyl]methyl](1-methylhexyl)-amino]methylene]-2,2-dimethyl-1,3-dioxane-4,6-dione] | 98 | 250 |  |  |  | change in vivo at 75 mg/kg ([2]; normal rats, 75 mg/kg, read-out: % Inhibition of Absorption): -83%; change in vivo at 100 mg/kg [3, 7]: -78%
4 | CCCCCC(C)N(Cc1ccc(C(C)(C)C)cc1)C(Nc1ccc(OCCCC)cc1)=C1C(=O)OC(C)(C)OC1=O (stereo not shown) [Compound 27, 5-[[(4-Butoxyphenyl)amino][[[4-(1,1-dimethylethyl)phenyl]methyl](1-methylhexyl)amino]-methylene]-2,2-dimethyl-1,3-dioxane-4,6-dione] | 96 | 230 |  |  | -31 | change in vivo at 20 mg/kg [2, 6]: -58%
5 | CCCCCC(C)N(Cc1ccc(CC(C)C)cc1)C(Nc1ccc(OC)cc1OC)=C1C(=O)OC(C)(C)OC1=O (stereo not shown) [Compound 32, 5-[[(2,4-Dimethoxyphenyl)amino][(1-methylhexyl)[[4-(2-methylpropyl)phenyl]methyl]amino]-methylene]-2,2-dimethyl-1,3-dioxane-4,6-dione] | 98 | 240 | 4 | 17 |  | change in vivo at 20 mg/kg [2, 6]: -79%; change in vivo at 60 mg/kg ([3]; 96 h, heading: % Decrease in Plasma Cholesterol, four days, 60 mg/kg): -97%
6 | CCCCCC(C)N(Cc1ccc(CC(C)(C)C)cc1)C(Nc1c(C)cc(N(C)C)cc1C)=C1C(=O)OC(C)(C)OC1=O (stereo not shown) [Compound 33, 5-[[[2,6-Dimethyl-4-(dimethylamino)phenyl]amino][[[4-(2,2-dimethylpropyl)phenyl]methyl](1-methylhexyl)amino]methylene]-2,2-dimethyl-1,3-dioxane-4,6-dione] | 98 | 380 |  |  |  | change in vivo at 50 mg/kg [2, 6]: -86%; change in vivo at 20 mg/kg [3, 7]: -30%
7 | CCCCCC(C)N(Cc1ccc(CC(C)(C)C)cc1)C(Nc1ccc(N(C)C)cc1)=C1C(=O)OC(C)(C)OC1=O (stereo not shown) [Compound 37] | 99 | 690 |  | 18 | -72 | change in vivo at 50 mg/kg [2, 6]: -85%
8 | CCCCCc1ccc(CN(C(Nc2ccc(OC)cc2OC)=C2C(=O)OC(C)(C)OC2=O)C(C)CCCCC)cc1 (stereo not shown) [Compound 40] | 99 | 360 | 2 | 7 | -78 | change in vivo at 10 mg/kg [2, 6]: -69%
9 | CCCCCc1ccc(CN(C(Nc2ccc(N(C)C)cc2)=C2C(=O)OC(C)(C)OC2=O)C(C)CCCCC)cc1 (stereo not shown) [Compound 41, 5-[[[4-(Dimethylamino)phenyl]amino][(1-methylhexyl)[(4-pentylphenyl)methyl]amino]-methylene]-2,2-dimethyl-1,3-dioxane-4,6-dione] | 98 | 260 | 3 | 7 | -89 | 
10 | CC(C)CCCC(C)N(Cc1ccc(CC(C)C)cc1)C(Nc1ccc(N(C)C)cc1)=C1C(=O)OC(C)(C)OC1=O (stereo not shown) [Compound 42] | 98 | 270 | 5 |  | -63 | 
11 | CCCCCCOc1ccc(NC(=C2C(=O)OC(C)(C)OC2=O)N(Cc2ccc(CC(C)C)cc2)C(C)CCCCC)cc1 (stereo not shown) [Compound 43, 5-[[[4-(Hexyloxy)phenyl]amino][(1-methylhexyl)[[4-(2methylpropyl)phenyl]methyl]amino]-methylene]-2,2-dimethyl-1,3-dioxane-4,6,-dione] | 97 | 410 |  |  | -67 | change in vivo at 10 mg/kg [2, 6]: -52%
12 | CCCCCC(C)N(Cc1ccc(CC(C)C)cc1)C(Nc1ccc(N(C)C)cc1C)=C1C(=O)OC(C)(C)OC1=O (stereo not shown) [Compound 46] | 98 | 350 | 2 | 8 |  | change in vivo at 10 mg/kg [2, 6]: -82%; change in vivo at 20 mg/kg [3, 7]: -70%
13 | CCCCCC(C)N(Cc1ccc(CC(C)(C)C)cc1)C(Nc1ccc(N(C)C)cc1C)=C1C(=O)OC(C)(C)OC1=O (stereo not shown) [Compound 47] | 98 | 260 | 3 | 16 |  | change in vivo at 10 mg/kg [2, 6]: -83%
14 | CCCCCCCN(Cc1ccc(CC(C)(C)C)cc1)C(Nc1ccc(OC)cc1OC)=C1C(=O)OC(C)(C)OC1=O [Compound 48, 5-[[(2,4-Dimethoxyphenyl)amino][[[4-(2,2-dimethylpropyl)phenyl]methyl]heptylamino]-methylene]-2,2-dimethyl-1,3-dioxane-4,6-dione] | 94 | 2900 | 11 | 25 |  | change in vivo at 200 mg/kg [2, 6]: -84%; change in vivo at 100 mg/kg [3, 7]: -60%
15 | CCCCCC(C)N(Cc1ccc(CC(C)(C)C)cc1)C(Nc1cc(C(C)(C)C)c(O)c(C(C)(C)C)c1)=C1C(=O)OC(C)(C)OC1=O (stereo not shown) [Compound 75] |  |  |  |  |  | antioxidant properties in low density lipoprotein oxidation studies [4]: demonstrated antioxidant properties; antioxidant properties in the lipoperoxide study [5]: demonstrated antioxidant properties
16 | CCCCCCCN(Cc1ccc(CC(C)(C)C)cc1)C(Nc1cc(C(C)(C)C)c(O)c(C(C)(C)C)c1)=C1C(=O)OC(C)(C)OC1=O [Compound 76, 5-[[[3,5-Bis(1,1-dimethylethyl)-4,1-hydrophenyl]amino][[[4-(2,2-dimethylpropyl)phenyl]methyl]heptylamino]methylene]-2,2-dimethyl-1,3-dioxane-4,6-dione] | 96 | 60 |  |  |  | antioxidant properties in low density lipoprotein oxidation studies [4]: demonstrated antioxidant properties; antioxidant properties in the lipoperoxide study [5]: demonstrated antioxidant properties
17 | CCCCCCN(Cc1ccc(CC(C)C)cc1)C(Nc1cc(C(C)(C)C)c(O)c(C(C)(C)C)c1)=C1C(=O)OC(C)(C)OC1=O [Compound 77] | 95 |  |  |  |  | antioxidant properties in low density lipoprotein oxidation studies [4]: demonstrated antioxidant properties; antioxidant properties in the lipoperoxide study [5]: demonstrated antioxidant properties
18 | CCCCCCN(Cc1ccc(CC(C)(C)C)cc1)C(Nc1cc(C(C)(C)C)c(O)c(C(C)(C)C)c1)=C1C(=O)OC(C)(C)OC1=O [Compound 79, 5-[[[3,5-Bis(1,1-dimethylethyl)-4-hydroxyphenyl]amino][[[4-(2,2-dimethylpropyl)phenyl]methyl]hexylamino]methylene]-2,2-dimethyl-1,3-dioxane-4,6-dione] |  |  |  |  |  | antioxidant properties in low density lipoprotein oxidation studies [4]: demonstrated antioxidant properties; antioxidant properties in the lipoperoxide study [5]: demonstrated antioxidant properties
